± gives the uncertainty stated by the source.
Test: xn = mol fraction of the nth substance listed

Molecule `C=CC#N` + CCCCCCO has a viscosity (298.15 K, 101.33 kPa, x1 = 0.1023) of 3.139 ± 0.037 mPa·s, a viscosity (298.15 K, 101.33 kPa, x1 = 0.2036) of 2.308 ± 0.028 mPa·s and a viscosity (298.15 K, 101.33 kPa, x1 = 0.3089) of 1.705 ± 0.021 mPa·s. The viscosity (298.15 K, 101.33 kPa, x1 = 0.4105) was 1.3 ± 0.016 mPa·s, the viscosity (298.15 K, 101.33 kPa, x1 = 0.5081) was 1.006 ± 0.013 mPa·s and the viscosity (298.15 K, 101.33 kPa, x1 = 0.6117) was 0.774 ± 0.01 mPa·s. For the same molecule, the viscosity (298.15 K, 101.33 kPa, x1 = 0.7084) was 0.617 ± 0.009 mPa·s, the viscosity (298.15 K, 101.33 kPa, x1 = 0.8056) was 0.495 ± 0.007 mPa·s and the viscosity (298.15 K, 101.33 kPa, x1 = 0.9019) was 0.41 ± 0.006 mPa·s. The viscosity (303.15 K, 101.33 kPa, x1 = 0.1023) was 2.727 ± 0.032 mPa·s, the viscosity (303.15 K, 101.33 kPa, x1 = 0.2036) was 2.03 ± 0.025 mPa·s and the viscosity (303.15 K, 101.33 kPa, x1 = 0.3089) was 1.522 ± 0.019 mPa·s. The viscosity (303.15 K, 101.33 kPa, x1 = 0.4105) was 1.175 ± 0.015 mPa·s, the viscosity (303.15 K, 101.33 kPa, x1 = 0.5081) was 0.916 ± 0.012 mPa·s and the viscosity (303.15 K, 101.33 kPa, x1 = 0.6117) was 0.712 ± 0.01 mPa·s. It also gave a viscosity (303.15 K, 101.33 kPa, x1 = 0.7084) of 0.571 ± 0.008 mPa·s, a viscosity (303.15 K, 101.33 kPa, x1 = 0.8056) of 0.466 ± 0.007 mPa·s and a viscosity (303.15 K, 101.33 kPa, x1 = 0.9019) of 0.388 ± 0.006 mPa·s. It also gave a viscosity (308.15 K, 101.33 kPa, x1 = 0.1023) of 2.38 ± 0.029 mPa·s, a viscosity (308.15 K, 101.33 kPa, x1 = 0.2036) of 1.799 ± 0.022 mPa·s and a viscosity (308.15 K, 101.33 kPa, x1 = 0.3089) of 1.365 ± 0.017 mPa·s. For the same molecule, the viscosity (308.15 K, 101.33 kPa, x1 = 0.4105) was 1.063 ± 0.014 mPa·s, the viscosity (308.15 K, 101.33 kPa, x1 = 0.5081) was 0.84 ± 0.011 mPa·s and the viscosity (308.15 K, 101.33 kPa, x1 = 0.6117) was 0.661 ± 0.009 mPa·s. The viscosity (308.15 K, 101.33 kPa, x1 = 0.7084) was 0.533 ± 0.008 mPa·s, the viscosity (308.15 K, 101.33 kPa, x1 = 0.8056) was 0.439 ± 0.007 mPa·s and the viscosity (308.15 K, 101.33 kPa, x1 = 0.9019) was 0.37 ± 0.006 mPa·s.

`C=CC#N` + CCCCCO gave a viscosity (298.15 K, 101.33 kPa, x1 = 0.1032) of 2.405 ± 0.029 mPa·s, a viscosity (298.15 K, 101.33 kPa, x1 = 0.2077) of 1.777 ± 0.022 mPa·s and a viscosity (298.15 K, 101.33 kPa, x1 = 0.3006) of 1.384 ± 0.017 mPa·s. It also gave a viscosity (298.15 K, 101.33 kPa, x1 = 0.4053) of 1.064 ± 0.014 mPa·s, a viscosity (298.15 K, 101.33 kPa, x1 = 0.5035) of 0.847 ± 0.011 mPa·s and a viscosity (298.15 K, 101.33 kPa, x1 = 0.6091) of 0.668 ± 0.009 mPa·s. For the same molecule, the viscosity (298.15 K, 101.33 kPa, x1 = 0.7025) was 0.558 ± 0.008 mPa·s, the viscosity (298.15 K, 101.33 kPa, x1 = 0.8042) was 0.464 ± 0.007 mPa·s and the viscosity (298.15 K, 101.33 kPa, x1 = 0.9004) was 0.401 ± 0.006 mPa·s. For the same molecule, the viscosity (303.15 K, 101.33 kPa, x1 = 0.1032) was 2.107 ± 0.025 mPa·s, the viscosity (303.15 K, 101.33 kPa, x1 = 0.2077) was 1.58 ± 0.02 mPa·s and the viscosity (303.15 K, 101.33 kPa, x1 = 0.3006) was 1.24 ± 0.016 mPa·s. For the same molecule, the viscosity (303.15 K, 101.33 kPa, x1 = 0.4053) was 0.965 ± 0.013 mPa·s, the viscosity (303.15 K, 101.33 kPa, x1 = 0.5035) was 0.774 ± 0.01 mPa·s and the viscosity (303.15 K, 101.33 kPa, x1 = 0.6091) was 0.619 ± 0.009 mPa·s. The viscosity (303.15 K, 101.33 kPa, x1 = 0.7025) was 0.52 ± 0.008 mPa·s, the viscosity (303.15 K, 101.33 kPa, x1 = 0.8042) was 0.436 ± 0.007 mPa·s and the viscosity (303.15 K, 101.33 kPa, x1 = 0.9004) was 0.382 ± 0.006 mPa·s. For the same molecule, the viscosity (308.15 K, 101.33 kPa, x1 = 0.1032) was 1.86 ± 0.023 mPa·s, the viscosity (308.15 K, 101.33 kPa, x1 = 0.2077) was 1.413 ± 0.018 mPa·s and the viscosity (308.15 K, 101.33 kPa, x1 = 0.3006) was 1.122 ± 0.014 mPa·s. For the same molecule, the viscosity (308.15 K, 101.33 kPa, x1 = 0.4053) was 0.879 ± 0.012 mPa·s, the viscosity (308.15 K, 101.33 kPa, x1 = 0.5035) was 0.715 ± 0.01 mPa·s and the viscosity (308.15 K, 101.33 kPa, x1 = 0.6091) was 0.577 ± 0.008 mPa·s. It also gave a viscosity (308.15 K, 101.33 kPa, x1 = 0.7025) of 0.488 ± 0.007 mPa·s, a viscosity (308.15 K, 101.33 kPa, x1 = 0.8042) of 0.416 ± 0.006 mPa·s and a viscosity (308.15 K, 101.33 kPa, x1 = 0.9004) of 0.364 ± 0.006 mPa·s.

With `CC(=O)CC(C)=O` + CCCCCO the viscosity (298.15 K, 101 kPa, x1 = 0.1) was 2.509 ± 0.023 mPa·s, the viscosity (298.15 K, 101 kPa, x1 = 0.2) was 1.944 ± 0.02 mPa·s and the viscosity (298.15 K, 101 kPa, x1 = 0.3) was 1.55 ± 0.018 mPa·s. The viscosity (298.15 K, 101 kPa, x1 = 0.4) was 1.263 ± 0.017 mPa·s, the viscosity (298.15 K, 101 kPa, x1 = 0.5) was 1.05 ± 0.016 mPa·s and the viscosity (298.15 K, 101 kPa, x1 = 0.6) was 0.897 ± 0.016 mPa·s. The viscosity (298.15 K, 101 kPa, x1 = 0.7) was 0.796 ± 0.015 mPa·s, the viscosity (298.15 K, 101 kPa, x1 = 0.8) was 0.743 ± 0.015 mPa·s and the viscosity (298.15 K, 101 kPa, x1 = 0.9) was 0.722 ± 0.015 mPa·s.

For `CCC(C)(C)O` + CCCCCO, the viscosity (298.15 K, 101 kPa, x2 = 0.051) was 3.666 ± 0.095 mPa·s, the viscosity (298.15 K, 101 kPa, x2 = 0.1017) was 3.812 ± 0.099 mPa·s and the viscosity (298.15 K, 101 kPa, x2 = 0.2023) was 4.096 ± 0.11 mPa·s. For the same molecule, the viscosity (298.15 K, 101 kPa, x2 = 0.3041) was 4.309 ± 0.11 mPa·s, the viscosity (298.15 K, 101 kPa, x2 = 0.4034) was 4.432 ± 0.12 mPa·s and the viscosity (298.15 K, 101 kPa, x2 = 0.4972) was 4.456 ± 0.12 mPa·s. It also gave a viscosity (298.15 K, 101 kPa, x2 = 0.5939) of 4.415 ± 0.12 mPa·s, a viscosity (298.15 K, 101 kPa, x2 = 0.6991) of 4.251 ± 0.11 mPa·s and a viscosity (298.15 K, 101 kPa, x2 = 0.8003) of 4.112 ± 0.11 mPa·s. The viscosity (298.15 K, 101 kPa, x2 = 0.9012) was 3.939 ± 0.1 mPa·s, the viscosity (298.15 K, 101 kPa, x2 = 0.9496) was 3.831 ± 0.1 mPa·s and the viscosity (318.15 K, 101 kPa, x2 = 0.051) was 1.715 ± 0.045 mPa·s. The viscosity (318.15 K, 101 kPa, x2 = 0.1017) was 1.782 ± 0.047 mPa·s, the viscosity (318.15 K, 101 kPa, x2 = 0.2023) was 1.867 ± 0.049 mPa·s and the viscosity (318.15 K, 101 kPa, x2 = 0.3041) was 1.974 ± 0.052 mPa·s. The viscosity (318.15 K, 101 kPa, x2 = 0.4034) was 2.058 ± 0.054 mPa·s, the viscosity (318.15 K, 101 kPa, x2 = 0.4972) was 2.122 ± 0.055 mPa·s and the viscosity (318.15 K, 101 kPa, x2 = 0.5939) was 2.167 ± 0.057 mPa·s. The viscosity (318.15 K, 101 kPa, x2 = 0.6991) was 2.195 ± 0.057 mPa·s, the viscosity (318.15 K, 101 kPa, x2 = 0.8003) was 2.187 ± 0.057 mPa·s and the viscosity (318.15 K, 101 kPa, x2 = 0.9012) was 2.174 ± 0.057 mPa·s. The viscosity (318.15 K, 101 kPa, x2 = 0.9496) was 2.161 ± 0.056 mPa·s.

Work on `CCCCN(CCCC)CCCC` + CCCCCO yielded a viscosity (303.15 K, 101.3 kPa, x1 = 0.0945) of 2.622 ± 0.03 mPa·s, a viscosity (303.15 K, 101.3 kPa, x1 = 0.1881) of 2.405 ± 0.028 mPa·s and a viscosity (303.15 K, 101.3 kPa, x1 = 0.2845) of 2.18 ± 0.025 mPa·s. The viscosity (303.15 K, 101.3 kPa, x1 = 0.3843) was 1.961 ± 0.023 mPa·s, the viscosity (303.15 K, 101.3 kPa, x1 = 0.4829) was 1.786 ± 0.021 mPa·s and the viscosity (303.15 K, 101.3 kPa, x1 = 0.6148) was 1.581 ± 0.019 mPa·s. The viscosity (303.15 K, 101.3 kPa, x1 = 0.7041) was 1.458 ± 0.017 mPa·s, the viscosity (303.15 K, 101.3 kPa, x1 = 0.798) was 1.365 ± 0.016 mPa·s and the viscosity (303.15 K, 101.3 kPa, x1 = 0.8912) was 1.262 ± 0.015 mPa·s. The viscosity (313.15 K, 101.3 kPa, x1 = 0.0945) was 2.122 ± 0.025 mPa·s, the viscosity (313.15 K, 101.3 kPa, x1 = 0.1881) was 1.91 ± 0.022 mPa·s and the viscosity (313.15 K, 101.3 kPa, x1 = 0.2845) was 1.714 ± 0.02 mPa·s. It also gave a viscosity (313.15 K, 101.3 kPa, x1 = 0.3843) of 1.551 ± 0.018 mPa·s, a viscosity (313.15 K, 101.3 kPa, x1 = 0.4829) of 1.415 ± 0.017 mPa·s and a viscosity (313.15 K, 101.3 kPa, x1 = 0.6148) of 1.266 ± 0.015 mPa·s. For the same molecule, the viscosity (313.15 K, 101.3 kPa, x1 = 0.7041) was 1.188 ± 0.014 mPa·s, the viscosity (313.15 K, 101.3 kPa, x1 = 0.798) was 1.118 ± 0.014 mPa·s and the viscosity (313.15 K, 101.3 kPa, x1 = 0.8912) was 1.054 ± 0.013 mPa·s.

From the CheMixHub viscosity set
